Data on 24 substances can be found in patent US11292821B2, “Peptides and combination of peptides for use in immunotherapy against lung cancer, including NSCLC, SCLC and other cancers” (Immatics Biotechnologies GmbH, priority 2017, dated 2022).

One assay deals with HLA-A*24. As to the kind of experiment: MHC binding assay (UV-ligand exchange, β2m ELISA). Also noted: species or system human. In general terms: ELISA stands for enzyme-linked immunosorbent assay.
Another assay deals with CD8+ T cells. As to the kind of experiment: In vitro T-cell priming assay with aAPCs (in vitro immunogenicity for MHC class I presented peptides). Type of assay: cell-based, human. The settings on record: in vitro immunogenicity, HLA A*24.

Turning to “1 (QYDPTPLTW; listed as Homo sapiens) [compound 1]”, the “Peptide exchange (peptide exchange yield, MHC class I binding score)” value (from here on “Peptide exchange”) with HLA-A*24 is ““++++” (>75% = ++++)”. Further, the “Wells positive [%]” value with CD8+ T cells is listed as ““+” (<20% = +)”.
For “2 (VWSNVTPLKF; listed as Homo sapiens) [compound 2]”, in that order: ““++++” (>75% = ++++)” and ““+” (<20% = +)”.
Regarding “63 (VMPSDSFFF; listed as Homo sapiens) [compound 63]”, the “Peptide exchange” value in the assay on HLA-A*24 is on record as ““++++” (>75% = ++++)”.
On the same count and under the same terms, next, “64 (NYAIFDEGHML; listed as Homo sapiens) [compound 64]”: ““++++” (>75% = ++++)”; “67 (RYPGKFYRV; listed as Homo sapiens) [compound 67]”: ““++++” (>75% = ++++)”.
Consider “68 (IYQQIIQTY; listed as Homo sapiens) [compound 68]”, for which, in the assay with HLA-A*24, the “Peptide exchange” value was ““++++” (>75% = ++++)”.
For “69 (IMPEKFEFW; listed as Homo sapiens) [compound 69]”, in the assay on HLA-A*24, the “Peptide exchange” value is on record as ““++++” (>75% = ++++)”.
Consider “70 (PYTNYTFDF; listed as Homo sapiens) [compound 70]”, for which the “Peptide exchange” value with HLA-A*24 is listed as ““++++” (>75% = ++++)”.
“71 (SYMVLAPVF; listed as Homo sapiens) [compound 71]”: the “Peptide exchange” value in the assay on HLA-A*24 is listed as ““++++” (>75% = ++++)”.
The same measure, in the same setting: for “73 (SYIGLPLTL; listed as Homo sapiens) [compound 73]” the value was ““+++” (>50 = +++)”; for “74 (VYDQYFITL; listed as Homo sapiens) [compound 74]”, ““++++” (>75% = ++++)”; for “75 (NYIYSISVF; listed as Homo sapiens) [compound 75]”, ““++++” (>75% = ++++)”.
In the case of “77 (AYTLLGHEFV; listed as Homo sapiens) [compound 77]”, the “Peptide exchange” value in the assay on HLA-A*24 was ““+” (>10% = +)”.
The same measure, in the same setting: for “78 (TWFPKTPMLF; listed as Homo sapiens) [compound 78]” the value was ““++++” (>75% = ++++)”; for “80 (YYSPLRDLL; listed as Homo sapiens) [compound 80]”, ““++++” (>75% = ++++)”.
Turning to “81 (LYPEGLRLL; listed as Homo sapiens) [compound 81]”, in the assay with HLA-A*24, the “Peptide exchange” value is recorded as ““++++” (>75% = ++++)”.
The same measure, in the same setting: for “82 (RFLPSPVVI; listed as Homo sapiens) [compound 82]” the value was ““++++” (>75% = ++++)”; for “376 (KYVKDFHKF; listed as Homo sapiens) [compound 376]”, ““++++” (>75% = ++++)”.
The same measure, in the same setting: for “377 (VYVGAVNRI; listed as Homo sapiens) [compound 377]” the value was ““++++” (>75% = ++++)”.
Same read-out and setting: next, “378 (KFLGPAEHLTF; listed as Homo sapiens) [compound 378]”: ““++++” (>75% = ++++)”; “381 (TYSKKHFRI; listed as Homo sapiens) [compound 381]”: ““++++” (>75% = ++++)”; “382 (IYHSHHPTL; listed as Homo sapiens) [compound 382]”: ““+++” (>50 = +++)”.
For the substance “385 (MYINEVERL; listed as Homo sapiens) [compound 385]”, the “Peptide exchange” value in the assay on HLA-A*24 is listed as ““++++” (>75% = ++++)”.
Still for that read-out and setting: next, “387 (RWLPQKNAAQF; listed as Homo sapiens) [compound 387]”: ““+++” (>50 = +++)”.
